Source: patent US10829520B2, “Beta-hairpin peptidomimetics” (POLYPHOR AG, priority 2015, dated 2020)
Where a SMILES comes first, the peptide text is derived from it. Bridges are numbered along the chain shown (N, C = ends). [ ]: non-standard residue; d: D form. dHyp = O=C(O)[C@H]1C[C@H](O)CN1; Pen = CC(C)(S)[C@H](N)C(=O)O; Tle = CC(C)(C)[C@H](N)C(=O)O; NMeC = CN[C@@H](CS)C(=O)O; dDab = NCC[C@@H](N)C(=O)O; Nle = CCCC[C@H](N)C(=O)O; Orn = NCCC[C@H](N)C(=O)O; Dab = NCC[C@H](N)C(=O)O

Tests used:
Type in all cases: cell-based
[1] = tested on: Pseudomonas aeruginosa ATCC 27853; details: ATCC 27853
Procedure, shortened: (§1)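 Broth microdilution per CLSI, cation-adjusted MH-II medium, 0.002% (v/v) polysorbate 80 final. Approx. 10^6 CFU/mL inoculum, incubated 35° C for 18-20 h; MIC read as absence of visible growth.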

[2] = tested on: Acinetobacter baumannii DSM 30008; details: DSM 30008
Procedure, shortened: as §1

Escherichia coli 926415 = details: 926415
[3] = tested on: Klebsiella pneumoniae SSI #3010; details: SSI #3010
Procedure, shortened: as §1

[4] = tested on: Escherichia coli ATCC 25922; details: ATCC 25922
Procedure, shortened: as §1

[5] = tested on: Klebsiella pneumoniae 968733; details: 968733
[6] = tested on: Acinetobacter baumannii 872842; details: 872842
[7] = tested on: human red blood cells (hRBC); assay: Hemolysis of human red blood cells; details: red cells of human, 1 h, 100 μg/mL
Procedure, shortened: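 Percent lysis of washed human erythrocytes after 1 h at 37° C. with 100 μg/mL peptide, calculated from OD540 of 8-fold diluted supernatant as a fraction of the 2.5% Triton X-100 value.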

SMILES: CCCC[C@@H]1NC(=O)[C@@H]2CCCN2C(=O)[C@H]2CCCN2C(=O)[C@H](CO)NC(=O)[C@H](CO)NC(=O)[C@H](C(C)(C)C)NC(=O)[C@H](CCN)NC(=O)[C@H](Cc2c[nH]c3ccccc23)NC(=O)[C@@H](N)CSSC[C@@H](C(=O)N[C@@H](Cc2ccc(O)cc2)C(=O)N[C@H](CCN)C(=O)N[C@H]2CCNC(=O)[C@H]([C@@H](C)O)NC(=O)[C@H](CCN)NC(=O)[C@H](CCN)NC(=O)[C@H](CC(C)C)NC(=O)[C@@H](Cc3ccccc3)NC(=O)[C@H](CCN)NC2=O)NC(=O)[C@H](CCCN)NC(=O)[C@H](CCN)NC(=O)[C@H](Cc2ccc(O)cc2)NC(=O)[C@H](CO)NC1=O [Ex. 201] (H-CW[Dab][Tle]SS[dP]P[Nle]SY[Dab][Orn]CY[dDab][Dab][Dab][dF]L[Dab][Dab]T; disulfide 1-14; lactam 17-C)
- Pseudomonas aeruginosa ATCC 27853 MIC [1]: 1 µg/mL
- Acinetobacter baumannii DSM 30008 MIC [2]: 1 µg/mL
- Escherichia coli 926415 MIC (Escherichia coli 926415): 0.5 µg/mL
- Klebsiella pneumoniae SSI #3010 MIC [3]: 1 µg/mL
- Escherichia coli ATCC 25922 MIC [4]: 0.25 µg/mL
- Klebsiella pneumoniae 968733 MIC [5]: 8 µg/mL
- Acinetobacter baumannii 872842 MIC [6]: 0.5 µg/mL
- Hemolysis at 100 μg/mL [7]: <1%

SMILES: CCCC[C@@H]1NC(=O)[C@@H]2CCCN2C(=O)[C@H]2CCCN2C(=O)[C@H](CO)NC(=O)[C@H](CO)NC(=O)[C@H](C(C)(C)C)NC(=O)[C@H](CCN)NC(=O)[C@H](Cc2c[nH]c3ccccc23)NC(=O)[C@@H](N)CSSC[C@@H](C(=O)N[C@H](Cc2c[nH]c3ccccc23)C(=O)N[C@@H](CCN)C(=O)N[C@H]2CCNC(=O)[C@H]([C@@H](C)O)NC(=O)[C@H](CCN)NC(=O)[C@H](CCN)NC(=O)[C@H](CC(C)C)NC(=O)[C@@H](Cc3ccccc3)NC(=O)[C@H](CCN)NC2=O)NC(=O)[C@H](CCCN)NC(=O)[C@H](CCN)NC(=O)[C@H](Cc2ccc(O)cc2)NC(=O)[C@H](CO)NC1=O [Ex. 202] (H-CW[Dab][Tle]SS[dP]P[Nle]SY[Dab][Orn]C[dW][Dab][Dab][Dab][dF]L[Dab][Dab]T; disulfide 1-14; lactam 17-C)
- Pseudomonas aeruginosa ATCC 27853 MIC [1]: 1 µg/mL
- Acinetobacter baumannii DSM 30008 MIC [2]: 1 µg/mL
- Escherichia coli 926415 MIC (Escherichia coli 926415): 0.5 µg/mL
- Klebsiella pneumoniae SSI #3010 MIC [3]: 1 µg/mL
- Escherichia coli ATCC 25922 MIC [4]: 0.25 µg/mL
- Klebsiella pneumoniae 968733 MIC [5]: 2 µg/mL
- Acinetobacter baumannii 872842 MIC [6]: 0.5 µg/mL
- Hemolysis at 100 μg/mL [7]: 2%

SMILES: CCCC[C@@H]1NC(=O)[C@@H]2CCCN2C(=O)[C@H]2CCCN2C(=O)[C@H](CO)NC(=O)[C@H](CO)NC(=O)[C@H](C(C)(C)C)NC(=O)[C@H](CCN)NC(=O)[C@H](Cc2c[nH]c3ccccc23)NC(=O)[C@@H](N)CSSC[C@@H](C(=O)N[C@@H](CCC(N)=O)C(=O)N[C@H](CCN)C(=O)N[C@H]2CCNC(=O)[C@H]([C@@H](C)O)NC(=O)[C@H](CCN)NC(=O)[C@H](CCN)NC(=O)[C@H](CC(C)C)NC(=O)[C@@H](Cc3ccccc3)NC(=O)[C@H](CCN)NC2=O)NC(=O)[C@H](CCCN)NC(=O)[C@H](CCN)NC(=O)[C@H](Cc2ccc(O)cc2)NC(=O)[C@H](CO)NC1=O [Ex. 203] (H-CW[Dab][Tle]SS[dP]P[Nle]SY[Dab][Orn]CQ[dDab][Dab][Dab][dF]L[Dab][Dab]T; disulfide 1-14; lactam 17-C)
- Pseudomonas aeruginosa ATCC 27853 MIC [1]: 1 µg/mL
- Acinetobacter baumannii DSM 30008 MIC [2]: 2 µg/mL
- Escherichia coli 926415 MIC (Escherichia coli 926415): 0.25 µg/mL
- Klebsiella pneumoniae SSI #3010 MIC [3]: 1 µg/mL
- Escherichia coli ATCC 25922 MIC [4]: 0.5 µg/mL
- Klebsiella pneumoniae 968733 MIC [5]: 4 µg/mL
- Acinetobacter baumannii 872842 MIC [6]: 0.5 µg/mL
- Hemolysis at 100 μg/mL [7]: <1%

SMILES: CCCC[C@@H]1NC(=O)[C@@H]2CCCN2C(=O)[C@H]2CCCN2C(=O)[C@H](CO)NC(=O)[C@H](CO)NC(=O)[C@H](C(C)(C)C)NC(=O)[C@H](CCN)NC(=O)[C@H](Cc2c[nH]c3ccccc23)NC(=O)[C@@H](N)CSSC[C@@H](C(=O)N[C@@H](C(=O)N[C@H](CCN)C(=O)N[C@H]2CCNC(=O)[C@H]([C@@H](C)O)NC(=O)[C@H](CCN)NC(=O)[C@H](CCN)NC(=O)[C@H](CC(C)C)NC(=O)[C@@H](Cc3ccccc3)NC(=O)[C@H](CCN)NC2=O)[C@H](C)O)NC(=O)[C@H](CCCN)NC(=O)[C@H](CCN)NC(=O)[C@H](Cc2ccc(O)cc2)NC(=O)[C@H](CO)NC1=O [Ex. 204] (H-CW[Dab][Tle]SS[dP]P[Nle]SY[Dab][Orn]C[dT][dDab][Dab][Dab][dF]L[Dab][Dab]T; disulfide 1-14; lactam 17-C)
- Pseudomonas aeruginosa ATCC 27853 MIC [1]: 0.5 µg/mL
- Acinetobacter baumannii DSM 30008 MIC [2]: 0.5 µg/mL
- Escherichia coli 926415 MIC (Escherichia coli 926415): 0.125 µg/mL
- Klebsiella pneumoniae SSI #3010 MIC [3]: 0.25 µg/mL
- Escherichia coli ATCC 25922 MIC [4]: 0.25 µg/mL
- Klebsiella pneumoniae 968733 MIC [5]: 0.5 µg/mL
- Acinetobacter baumannii 872842 MIC [6]: 0.25 µg/mL
- Hemolysis at 100 μg/mL [7]: 3%

SMILES: CCCC[C@@H]1NC(=O)[C@@H]2CCCN2C(=O)[C@H]2CCCN2C(=O)[C@H](CO)NC(=O)[C@H](CO)NC(=O)[C@H](C(C)(C)C)NC(=O)[C@H](CCN)NC(=O)[C@H](Cc2c[nH]c3ccccc23)NC(=O)[C@@H](N)CSSC[C@@H](C(=O)N[C@@H](CCN)C(=O)N[C@H](CCN)C(=O)N[C@H]2CCNC(=O)[C@H]([C@@H](C)O)NC(=O)[C@H](CCN)NC(=O)[C@H](CCN)NC(=O)[C@H](CC(C)C)NC(=O)[C@@H](Cc3ccccc3)NC(=O)[C@H](CCN)NC2=O)NC(=O)[C@H](CCCN)NC(=O)[C@H](CCN)NC(=O)[C@H](Cc2ccc(O)cc2)NC(=O)[C@H](CO)NC1=O [Ex. 205] (H-CW[Dab][Tle]SS[dP]P[Nle]SY[Dab][Orn]C[Dab][dDab][Dab][Dab][dF]L[Dab][Dab]T; disulfide 1-14; lactam 17-C)
- Pseudomonas aeruginosa ATCC 27853 MIC [1]: 0.25 µg/mL
- Acinetobacter baumannii DSM 30008 MIC [2]: 2 µg/mL
- Escherichia coli 926415 MIC (Escherichia coli 926415): 0.5 µg/mL
- Klebsiella pneumoniae SSI #3010 MIC [3]: 2 µg/mL
- Escherichia coli ATCC 25922 MIC [4]: 0.25 µg/mL
- Klebsiella pneumoniae 968733 MIC [5]: 2 µg/mL
- Acinetobacter baumannii 872842 MIC [6]: 0.5 µg/mL
- Hemolysis at 100 μg/mL [7]: <1%

SMILES: CCCC[C@@H]1NC(=O)[C@@H]2CCCN2C(=O)[C@H]2CCCN2C(=O)[C@H](CO)NC(=O)[C@H](Cc2ccc(O)cc2)NC(=O)[C@H](C(C)(C)C)NC(=O)[C@H](CCN)NC(=O)[C@H](Cc2c[nH]c3ccccc23)NC(=O)[C@@H](NC)CSSC[C@@H](C(=O)N[C@H](CCN)C(=O)N[C@H]2CCNC(=O)[C@H]([C@@H](C)O)NC(=O)[C@H](CCN)NC(=O)[C@H](CCN)NC(=O)[C@H](CC(C)C)NC(=O)[C@@H](CC(C)C)NC(=O)[C@H](CCN)NC2=O)NC(=O)[C@H](CCCN)NC(=O)[C@H](CCN)NC(=O)[C@H](Cc2ccc(O)cc2)NC(=O)[C@H](CO)NC1=O [Ex. 207] (H-[NMeC]W[Dab][Tle]YS[dP]P[Nle]SY[Dab][Orn]C[dDab][Dab][Dab][dL]L[Dab][Dab]T; disulfide 1-14; lactam 16-C)
- Pseudomonas aeruginosa ATCC 27853 MIC [1]: 2 µg/mL
- Acinetobacter baumannii DSM 30008 MIC [2]: 2 µg/mL
- Escherichia coli 926415 MIC (Escherichia coli 926415): 0.25 µg/mL
- Klebsiella pneumoniae SSI #3010 MIC [3]: 0.125 µg/mL
- Escherichia coli ATCC 25922 MIC [4]: 0.125 µg/mL
- Klebsiella pneumoniae 968733 MIC [5]: 0.5 µg/mL
- Acinetobacter baumannii 872842 MIC [6]: 1 µg/mL
- Hemolysis at 100 μg/mL [7]: 1%

SMILES: CC(C)C[C@@H]1NC(=O)[C@@H](CC(C)C)NC(=O)[C@H](CCN)NC(=O)[C@@H](NC(=O)[C@@H](CCN)NC(=O)[C@@H]2CSSC(C)(C)[C@H](N)C(=O)N[C@@H](Cc3c[nH]c4ccccc34)C(=O)N[C@@H](CCN)C(=O)N[C@@H](C(C)C)C(=O)N[C@@H](CO)C(=O)N[C@@H](CO)C(=O)N3C[C@@H](O)C[C@@H]3C(=O)N3CCC[C@H]3C(=O)N[C@@H](CC(C)C)C(=O)N[C@@H](CO)C(=O)N[C@@H](Cc3ccc(O)cc3)C(=O)N[C@@H](CCN)C(=O)N[C@@H](CCCN)C(=O)N2)CCNC(=O)[C@H]([C@@H](C)O)NC(=O)[C@H](CCN)NC(=O)[C@H](CCN)NC1=O [Ex. 208] (H-[Pen]W[Dab]VSS[dHyp]PLSY[Dab][Orn]C[dDab][Dab][Dab][dL]L[Dab][Dab]T; disulfide 1-14; lactam 16-C)
- Pseudomonas aeruginosa ATCC 27853 MIC [1]: 2 µg/mL
- Acinetobacter baumannii DSM 30008 MIC [2]: 1 µg/mL
- Escherichia coli 926415 MIC (Escherichia coli 926415): 0.5 µg/mL
- Klebsiella pneumoniae SSI #3010 MIC [3]: 1 µg/mL
- Escherichia coli ATCC 25922 MIC [4]: 0.25 µg/mL
- Klebsiella pneumoniae 968733 MIC [5]: 8 µg/mL
- Acinetobacter baumannii 872842 MIC [6]: 2 µg/mL
- Hemolysis at 100 μg/mL [7]: <1%

SMILES: CC(C)C[C@@H]1NC(=O)[C@@H](CC(C)C)NC(=O)[C@H](CCN)NC(=O)[C@@H](NC(=O)[C@@H](CCN)NC(=O)[C@@H]2CSSC[C@H](N)C(=O)N[C@@H](Cc3c[nH]c4ccccc34)C(=O)N[C@@H](CCN)C(=O)N[C@@H](C(C)C)C(=O)N[C@@H]([C@@H](C)O)C(=O)N[C@@H](Cc3ccc(O)cc3)C(=O)N3CCC[C@@H]3C(=O)N3CCC[C@H]3C(=O)N[C@@H](CC(C)C)C(=O)N[C@@H](CO)C(=O)N[C@@H](Cc3ccc(O)cc3)C(=O)N[C@@H](CCN)C(=O)N[C@@H](CCN)C(=O)N2)CCNC(=O)[C@H]([C@@H](C)O)NC(=O)[C@H](CCN)NC(=O)[C@H](CCN)NC1=O [Ex. 209] (H-CW[Dab]VTY[dP]PLSY[Dab][Dab]C[dDab][Dab][Dab][dL]L[Dab][Dab]T; disulfide 1-14; lactam 16-C)
- Pseudomonas aeruginosa ATCC 27853 MIC [1]: 1 µg/mL
- Acinetobacter baumannii DSM 30008 MIC [2]: 0.5 µg/mL
- Escherichia coli 926415 MIC (Escherichia coli 926415): 0.25 µg/mL
- Klebsiella pneumoniae SSI #3010 MIC [3]: 0.25 µg/mL
- Escherichia coli ATCC 25922 MIC [4]: 0.125 µg/mL
- Klebsiella pneumoniae 968733 MIC [5]: 0.5 µg/mL
- Acinetobacter baumannii 872842 MIC [6]: 0.5 µg/mL
- Hemolysis at 100 μg/mL [7]: 3%
